Experiment: mn = molality of the nth substance listed, in mol/kg
Conditions: 101 kPa, Liquid; for speed of sound: Pulse-echo method

CC#N [acetonitrile] + CCCC[P+](CCCC)(CCCC)CCCC.[Br-]
m2 = 0
Conditions | mass density [kg/m3]
288.15 K | 787.275
293.15 K | 781.893
298.15 K | 776.493
303.15 K | 771.067
308.15 K | 765.61
313.15 K | 760.119
323.15 K | 749.031

CC(C)=O [acetone] + CCCC[P+](CCCC)(CCCC)CCCC.[Br-]
m2 = 0
Conditions | mass density [kg/m3]
288.15 K | 795.633
293.15 K | 789.952
298.15 K | 784.234
303.15 K | 778.47
308.15 K | 772.661
313.15 K | 766.799

CCCC[P+](CCCC)(CCCC)CCCC.[Br-] [tetrabutylphosphonium bromide] + CC(C)=O
Conditions | mass density, 288.15 K [kg/m3] | mass density, 293.15 K [kg/m3] | mass density, 298.15 K [kg/m3] | mass density, 303.15 K [kg/m3] | mass density, 308.15 K [kg/m3] | mass density, 313.15 K [kg/m3] | speed of sound, 298.15 K [m/s]
m1 = 0.009972 | 796.516 | 790.843 | 785.133 | 779.385 | 773.586 | 767.735 | 1161.1
m1 = 0.01477 | 796.926 | 791.257 | 785.552 | 779.806 | 774.015 | 768.169 | –
m1 = 0.01959 | 797.328 | 791.666 | 785.967 | 780.225 | 774.439 | 768.597 | 1161.8
m1 = 0.02424 | 797.711 | 792.056 | 786.362 | 780.624 | 774.841 | 769.006 | –
m1 = 0.02891 | 798.099 | 792.447 | 786.758 | 781.026 | 775.247 | 769.416 | –
m1 = 0.03385 | 798.51 | 792.86 | 787.178 | 781.451 | 775.678 | 769.85 | 1162.7
m1 = 0.04786 | 799.673 | 794.037 | 788.362 | 782.648 | 776.885 | 771.075 | 1163.6
m1 = 0.0619 | 800.822 | 795.195 | 789.537 | 783.836 | 778.088 | 772.29 | 1164.5
m1 = 0.07794 | 802.136 | 796.525 | 790.878 | 785.191 | 779.457 | 773.675 | 1165.7
m1 = 0.09642 | 803.646 | 798.046 | 792.414 | 786.74 | 781.022 | 775.257 | 1166.8
m1 = 0.123 | 805.822 | 800.247 | 794.64 | 788.995 | 783.255 | 777.557 | 1168.4
m1 = 0.1559 | 808.487 | 802.938 | 797.356 | 791.736 | 786.072 | 780.36 | 1170.4
m1 = 0.1912 | 811.381 | 805.858 | 800.306 | 794.713 | 789.077 | 783.39 | 1172.7
m1 = 0.2209 | 813.828 | 808.333 | 802.798 | 797.229 | 791.622 | 785.97 | 1174.3
m1 = 0.2576 | 816.813 | 811.345 | 805.845 | 800.309 | 794.734 | 789.113 | 1176.6
m1 = 0.2914 | 819.596 | 814.151 | 808.679 | 803.169 | 797.619 | 792.03 | 1178.7

CCCC[P+](CCCC)(CCCC)CCCC.[Br-] [tetrabutylphosphonium bromide] + CC#N
Conditions | mass density, 288.15 K [kg/m3] | mass density, 293.15 K [kg/m3] | mass density, 298.15 K [kg/m3] | mass density, 303.15 K [kg/m3] | mass density, 308.15 K [kg/m3] | mass density, 313.15 K [kg/m3] | mass density, 323.15 K [kg/m3] | speed of sound, 298.15 K [m/s]
m1 = 0.007874 | 787.927 | 782.552 | 777.157 | 771.738 | 766.288 | 760.805 | 749.733 | –
m1 = 0.01066 | 788.155 | 782.783 | 777.389 | 771.974 | 766.524 | 761.045 | 749.978 | –
m1 = 0.01465 | 788.477 | 783.109 | 777.721 | 772.308 | 766.862 | 761.385 | 750.325 | –
m1 = 0.01965 | 788.885 | 783.521 | 778.136 | 772.724 | 767.283 | 761.811 | 750.761 | –
m1 = 0.02448 | 789.275 | 783.912 | 778.532 | 773.125 | 767.689 | 762.22 | 751.178 | –
m1 = 0.0297 | 789.7 | 784.34 | 778.965 | 773.559 | 768.128 | 762.662 | 751.631 | –
m1 = 0.03509 | 790.132 | 784.784 | 779.405 | 774.005 | 768.58 | 763.119 | 752.095 | –
m1 = 0.03974 | 790.506 | 785.156 | 779.78 | 774.389 | 768.965 | 763.508 | 752.488 | 1280.1
m1 = 0.04929 | 791.273 | 785.93 | 780.567 | 775.178 | 769.76 | 764.31 | 753.307 | 1280.5
m1 = 0.06938 | 792.879 | 787.551 | 782.208 | 776.834 | 771.429 | 765.995 | 755.023 | 1281.4
m1 = 0.08849 | 794.411 | 789.095 | 783.76 | 778.399 | 773.011 | 767.591 | 756.649 | 1282.2
m1 = 0.1056 | 795.783 | 790.48 | 785.156 | 779.812 | 774.43 | 769.023 | 758.107 | –
m1 = 0.1224 | 797.155 | 791.858 | 786.545 | 781.208 | 775.841 | 770.445 | 759.553 | –
m1 = 0.1338 | 798.088 | 792.8 | 787.494 | 782.156 | 776.78 | 771.4 | 760.532 | 1284.1
m1 = 0.1414 | 798.688 | 793.405 | 788.102 | 782.773 | 777.428 | 772.045 | 761.174 | –
m1 = 0.1504 | 799.412 | 794.136 | 788.839 | 783.514 | 778.17 | 772.795 | 761.945 | –
m1 = 0.1671 | 800.758 | 795.492 | 790.206 | 784.9 | 779.563 | 774.2 | 763.372 | 1285.6
m1 = 0.1811 | 801.879 | 796.621 | 791.346 | 786.047 | 780.72 | 775.365 | 764.561 | –
m1 = 0.1987 | 803.297 | 798.049 | 792.784 | 787.498 | 782.184 | 776.843 | 766.064 | 1287
m1 = 0.2296 | 805.781 | 800.553 | 795.309 | 790.042 | 784.751 | 779.433 | 768.697 | 1288.3
m1 = 0.2599 | 808.22 | 803.012 | 797.78 | 792.541 | 787.27 | 781.973 | 771.277 | 1289.5
m1 = 0.2925 | 810.865 | 805.677 | 800.473 | 795.247 | 789.997 | 784.72 | 774.075 | 1290.8
m1 = 0.3259 | 813.591 | 808.424 | 803.241 | 798.038 | 792.811 | 787.558 | 776.962 | 1292.2

CCO [ethanol] + CCCC[P+](CCCC)(CCCC)CCCC.[Br-]
m2 = 0
Conditions | mass density [kg/m3]
288.15 K | 793.628
293.15 K | 789.354
298.15 K | 785.063
303.15 K | 780.745
308.15 K | 776.392
313.15 K | 772
323.15 K | 763.084

CCCO [propan-1-ol] + CCCC[P+](CCCC)(CCCC)CCCC.[Br-]
m2 = 0
Conditions | mass density [kg/m3]
288.15 K | 807.448
293.15 K | 803.46
298.15 K | 799.452
303.15 K | 795.414
308.15 K | 791.344
313.15 K | 787.227
323.15 K | 778.86

— the NIST ThermoML archive (doi:10.1021/je900888e)
